Results: patent US8063221B2, “Aminoquinolones as GSK-3 inhibitors” (Kyorin Pharmaceutical Co., Ltd., priority 2006, dated 2011)
≈ marks a conversion by molar mass, not a printed value. Read-outs that look alike come from different tables or passages of the source.

Tests used:
[1] = molecular target: T1, recombinant full-length human GSK3β (Homo sapiens, UniProt P49841); test: Luciferase-coupled cell-free GSK3β kinase assay; type: biochemical
T1 construct: recombinant full-length human GSK3β (Upstate); purchased Upstate
In short: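 GSK3β, 10-25 ng, was incubated with compound for 1 h at 30° C in MOPS pH 7.0 buffer containing 62.5 μM phospho-glycogen synthase peptide-2 and 5 μM ATP. Remaining ATP was read by KinaseGlo luminescence, and IC50 was fitted from % inhibition relative to maximal inhibition.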

[2] = tested on: E. coli, ATCC8739; test: Antibacterial activity (MIC), E. coli; type: cell-based; conditions: Escherichia coli
From the text: (§1) As used herein, a minimum inhibitory concentration (MIC) for bacterial growth assay is the lowest level of a compound needed to cause an inhibition to bacterial growth in culture medium. In certain embodiments, the antibacterial activity of compounds herein, measured as MIC.
(§2) In certain embodiments, GSK3 inhibitors provided herein are substantially free of antibacterial activity or having very low antibacterial activity. The antibacterial activity can be measured by methods known in the art by estimating a minimum inhibitory concentration (MIC) for test compounds. A MIC is the lowest level of a compound needed to cause an inhibition to bacterial growth in a culture medium. […] (Clinical and Laboratory Standards Institute. Methods for Dilution Antimicrobial Susceptibility Tests for Bacteria That Grow Aerobically; Approved Standard-Sixth Edition: CLSI document […]. CLSI, Wayne, Pa. (2003))
(§3) Antibacterial activity for E. coli, ATCC8739 andS. aureus Smith expressed as MIC (μM) is provided as follows: […]

[3] = tested on: S. aureus Smith; test: Antibacterial activity (MIC), S. aureus; type: cell-based; conditions: Staphylococcus aureus
From the text: as §1, §2, §3

[4] = Animal Study 2 (oral glucose tolerance test); design: species or system Crlj:CD1 (ICR) mice; conditions: Mus musculus, po, read-out: In vivo studies 300 mg/kg (oral glucose tolerance test, % decrease)
From the text: The results of in vivo oral glucose tolerance test (Example 39), expressed as % decrease, are presented as follows: […]
Animal Study 2 (Oral Glucose Tolerance Test)
Male Crlj:CD1 (ICR) mice were obtained from Charles River Laboratries Japan (Yokohama, Japan). All mice were given a standard diet (Clea Japan, Tokyo, Japan) and tap water ad libitum. All institutional guidelines for animal care and use were applied in this study. Test compounds were suspended in 0.3% carboxymethyl-cellulose sodium salt (CMC-Na; Sigma, St. Louis, Mo.). After fasting for 15-17 hr, the test compound (300 mg/kg) or vehicle (0.3% CMC-Na) was orally administered to 7-week-old ICR mice. Glucose solution (5 g/kg) was orally administered at 30 min after test compound treatment. Blood samples were collected from tail vein using capillary tubes containing EDTA·2K before test compound treatment, and at 0, 0.5, 1, and 2 hr after glucose load. The blood samples were centrifuged at 2,500×g for 5 min and separated plasma was kept on ice and analyzed in the same day. Plasma glucose levels were determined using the glucose C II-test (Wako Pure Chemical Industries, Osaka, Japan).
The sum of plasma glucose levels at 0.5 and 1 hr after glucose load was compared to that of vehicle treatment, and results were presented as percent decrease.

[5] = ATCC8739, Table 1, E. coli ATCC8739, read-out: Antibacterial MIC (μM) E.Coli
[6] = Table 1, read-out: Antibacterial MIC (μM) S. aureus Smith
[7] = ATCC8739, Table 2, E. coli ATCC8739, read-out: Antimicrobial MIC [μM] E. Coli
[8] = Table 2, S. aureus Smith, read-out: Antimicrobial MIC [μM] S. aureus

T1 sequence (P49841 whole entry): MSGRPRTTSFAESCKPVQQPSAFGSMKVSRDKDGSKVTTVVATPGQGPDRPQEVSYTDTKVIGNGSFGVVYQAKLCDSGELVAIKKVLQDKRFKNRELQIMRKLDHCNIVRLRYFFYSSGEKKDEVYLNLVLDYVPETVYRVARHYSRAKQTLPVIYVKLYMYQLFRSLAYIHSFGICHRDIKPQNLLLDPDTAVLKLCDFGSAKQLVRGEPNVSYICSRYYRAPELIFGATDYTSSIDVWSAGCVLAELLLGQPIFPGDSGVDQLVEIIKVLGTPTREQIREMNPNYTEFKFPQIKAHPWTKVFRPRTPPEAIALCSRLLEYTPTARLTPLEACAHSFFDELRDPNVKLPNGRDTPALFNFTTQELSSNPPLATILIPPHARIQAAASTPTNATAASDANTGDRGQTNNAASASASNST

Compound | IC50 ([1]; Table 1) [µM] | MIC [2, 5] [µM] | MIC [3, 6] [µM] | also measured
Nc1c(F)c(NCCCc2ccccc2)c(F)c2c1c(=O)c(C(=O)O)cn2CCCn1ccnc1 [compound 65] | 0.1 to 0.5 | 10 to 50 (≈ 4.82 to 24.1 µg/mL) | 10 to 50 (≈ 4.82 to 24.1 µg/mL) | –
Nc1ccc(CCNc2c(F)c(N)c3c(=O)ccn(C4CC4)c3c2F)cc1 [compound 12] | 0.5 to 1 | > 50 | 10 to 50 (≈ 3.7 to 18.5 µg/mL) | –
Nc1c(F)c(NCCCc2ccccc2)c(F)c2c1c(=O)ccn2C1CCCC1 [compound 72] | < 0.1 | 10 to 50 (≈ 3.97 to 19.9 µg/mL) | 10 to 50 (≈ 3.97 to 19.9 µg/mL) | –
CC1COc2c(NCCCc3ccccc3)c(F)c(N)c3c(=O)c(C(=O)O)cn1c23 (stereo not shown) [compound 81] | < 0.1 | 10 to 50 (≈ 4.11 to 20.6 µg/mL) | 0.5 to 10 (≈ 0.206 to 4.11 µg/mL) | –
Nc1c(F)c(NCCNc2ccccn2)c(F)c2c1c(=O)ccn2C1CC1 [compound 15] | 0.1 to 0.5 | > 50 | > 50 | –
Nc1c(F)c(NCCc2ccncc2)c(F)c2c1c(=O)ccn2C1CC1 [compound 11] | 0.1 to 0.5 | > 50 | > 50 | –
Nc1c(F)c(NCCCc2ccccc2)c(F)c2c1c(=O)c(C(=O)O)cn2C1CCCC1 [compound 52] | < 0.1 | 10 to 50 (≈ 4.41 to 22.1 µg/mL) | 10 to 50 (≈ 4.41 to 22.1 µg/mL) | –
CC(C)[C@H]1COc2c(NCCNc3ccccn3)c(F)c(N)c3c(=O)c(C(=O)O)cn1c23 [compound 60] | – | – | – | IC50 ([1]; Table 2): < 0.1 µM; MIC [2, 7]: 10 to 50 µM (≈ 4.41 to 22.1 µg/mL); MIC [3, 8]: 10 to 50 µM (≈ 4.41 to 22.1 µg/mL)
COc1c(NCCNc2ccc(C(=O)O)cn2)c(F)c(N)c2c(=O)c(C(=O)O)cn(C3CC3)c12 [Example 138] | – | – | – | IC50 ([1]; Table 2): < 0.1 µM; MIC [2, 7]: > 50 µM; MIC [3, 8]: > 50 µM
COc1c(NCCCOc2ccccc2)c(F)c(N)c2c(=O)c(C(=O)O)cn(C3CC3)c12 [compound 82] | > 1 | 10 to 50 (≈ 4.41 to 22.1 µg/mL) | 10 to 50 (≈ 4.41 to 22.1 µg/mL) | –
Nc1c(F)c(NCCNc2cccc3ccccc23)c(F)c2c1c(=O)ccn2CCc1ccccc1 [compound 64] | 0.1 to 0.5 | 10 to 50 (≈ 4.85 to 24.2 µg/mL) | 10 to 50 (≈ 4.85 to 24.2 µg/mL) | –
CC1(C)COc2c(NCCNc3ccccn3)c(F)c(N)c3c(=O)c(C(=O)O)cn(c23)C1 [compound 24] | – | – | – | IC50 ([1]; Table 2): 0.1 to 0.5 µM; MIC [2, 7]: 0.5 to 10 µM (≈ 0.221 to 4.41 µg/mL); MIC [3, 8]: 0.5 to 10 µM (≈ 0.221 to 4.41 µg/mL)
CC(C)OCCCNc1c(F)c(N)c2c(=O)ccn(CCc3ccccc3)c2c1F [compound 60] | 0.5 to 1 | 10 to 50 (≈ 4.15 to 20.8 µg/mL) | 10 to 50 (≈ 4.15 to 20.8 µg/mL) | –
CCOC(=O)CCNc1c(F)c(N)c2c(=O)c(C(=O)O)cn(C3CC3)c2c1OC [Example 122] | – | – | – | IC50 ([1]; Table 2): 0.5 to 1 µM; MIC [2, 7]: 10 to 50 µM (≈ 4.07 to 20.4 µg/mL); MIC [3, 8]: 0.5 to 10 µM (≈ 0.204 to 4.07 µg/mL)
CC(C)OCCCNc1c(F)c(N)c2c(=O)c(C(=O)O)cn(C3CCCC3)c2c1F [compound 55] | < 0.1 | – | – | MIC ([2]; ATCC8739, read-out: Antibacterial MIC (μM) E.Coli): 10 to 50 µM (≈ 4.23 to 21.2 µg/mL); MIC ([3]; read-out: Antibacterial MIC (μM) S. aureus Smith): 10 to 50 µM (≈ 4.23 to 21.2 µg/mL)
Nc1c(F)c(NCCCCc2ccccc2)c(F)c2c1c(=O)c(C(=O)O)cn2C1CC1 [compound 20] | 0.1 to 0.5 | 10 to 50 (≈ 4.27 to 21.4 µg/mL) | 0.5 to 10 (≈ 0.214 to 4.27 µg/mL) | –
Nc1c(F)c(NCCCCc2ccccc2)c(F)c2c1c(=O)ccn2C1CC1 [compound 57] | 0.5 to 1 | 10 to 50 (≈ 3.83 to 19.2 µg/mL) | 10 to 50 (≈ 3.83 to 19.2 µg/mL) | –
CC(C)[C@H]1COc2c(NCCNc3ccccn3)c(F)c(N)c3c(=O)c(C(=O)O)cn1c23 [compound 61] | – | – | – | inhibition in vivo at 300 mg/kg [4]: 10 to 20%
COc1c(NCCNc2ccccn2)c(F)c(NC(=O)C(F)(F)F)c2c(=O)c(C#N)cn(C3CC3)c12 [Example 141] | – | – | – | IC50 ([1]; Table 2): < 0.1 µM; MIC [2, 7]: 0.5 to 10 µM (≈ 0.252 to 5.04 µg/mL); MIC [3, 8]: 0.5 to 10 µM (≈ 0.252 to 5.04 µg/mL)
CC(C)OCCCNc1c(F)c(N)c2c(=O)c(C(=O)O)cn(CCc3ccccc3)c2c1F [compound 50] | 0.5 to 1 | 0.5 to 10 (≈ 0.23 to 4.59 µg/mL) | 0.5 to 10 (≈ 0.23 to 4.59 µg/mL) | –
COc1c(NCCc2ccncc2)c(F)c(N)c2c(=O)c(C(=O)O)cn(C3CCCC3)c12 [compound 80] | > 1 | > 50 | 10 to 50 (≈ 4.4 to 22 µg/mL) | –
COc1c(NCCCn2ccnc2)c(F)c(N)c2c(=O)c(C(=O)O)cn(C3CC3)c12 [compound 69] | < 0.1 | 10 to 50 (≈ 4.15 to 20.8 µg/mL) | 0.5 to 10 (≈ 0.208 to 4.15 µg/mL) | –
COc1c(OCCNc2ccccn2)c(F)c(N)c2c(=O)c(C(=O)O)cn(C3CC3)c12 [Example 132] | – | – | – | IC50 ([1]; Table 2): > 1 µM; MIC [2, 7]: 0.5 to 10 µM (≈ 0.214 to 4.28 µg/mL); MIC [3, 8]: < 0.5 µM
